Each structure is given as a SMILES string.

The target of assay [1] is T1, Melatonin receptor type 1B (Homo sapiens) (UniProt P49286).
T1 sequence (whole entry): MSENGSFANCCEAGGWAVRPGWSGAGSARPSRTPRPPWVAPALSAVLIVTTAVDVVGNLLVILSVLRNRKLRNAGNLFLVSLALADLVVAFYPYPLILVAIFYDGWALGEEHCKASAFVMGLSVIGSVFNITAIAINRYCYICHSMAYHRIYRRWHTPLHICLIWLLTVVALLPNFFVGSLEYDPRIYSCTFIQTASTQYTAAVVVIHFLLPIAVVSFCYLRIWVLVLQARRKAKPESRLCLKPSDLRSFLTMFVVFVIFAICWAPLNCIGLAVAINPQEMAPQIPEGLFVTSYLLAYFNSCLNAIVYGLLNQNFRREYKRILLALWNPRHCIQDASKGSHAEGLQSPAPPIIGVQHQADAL
Kind of assay: Intrinsic activity at human cloned MT2 receptor expressed in […] NIH3T3 cells assessed as increase of [35S]GTPgammaS binding relative to melatonin. The class given is functional, cell-based. (In general: Binding of GTPγS marks nucleotide exchange on a G protein.)

Assay [2] has as its target T2, Melatonin receptor type 1A (Homo sapiens, UniProt P48039). Kind of assay: Displacement of [125I]iodomelatonin from human cloned MT1 receptor expressed in […] NIH3T3 cells after 90 mins. In kind it is cell-based.
Assay [3] concerns the target T3, Melatonin receptor type 1B (Homo sapiens, UniProt P49286).
T3 sequence (P49286 whole entry): T1 sequence (whole entry)
In words: Displacement of [125I]iodomelatonin from human cloned MT2 receptor expressed in […] NIH3T3 cells after 90 mins. The class given is cell-based.

Assay [4] deals with T2, Melatonin receptor type 1A. Kind of assay: Intrinsic activity at human cloned MT1 receptor expressed in […] NIH3T3 cells assessed as increase of [35S]GTPgammaS binding relative to melatonin. In kind it is functional, cell-based.

T2 sequence (P48039 whole entry): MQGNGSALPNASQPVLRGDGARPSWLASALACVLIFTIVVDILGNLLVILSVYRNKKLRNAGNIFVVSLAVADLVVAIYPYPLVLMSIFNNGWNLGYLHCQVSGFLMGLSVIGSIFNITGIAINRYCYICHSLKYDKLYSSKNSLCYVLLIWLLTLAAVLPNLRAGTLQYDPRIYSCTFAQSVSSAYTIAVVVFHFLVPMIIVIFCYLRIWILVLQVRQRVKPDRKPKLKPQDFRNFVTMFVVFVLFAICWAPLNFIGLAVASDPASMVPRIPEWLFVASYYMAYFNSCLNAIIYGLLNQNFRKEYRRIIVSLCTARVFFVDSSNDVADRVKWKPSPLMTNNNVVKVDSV

Turning to `COc1cccc(OCC(C)NC(C)=O)c1` (stereo unspecified), the Ratio in assay [1] stood at 0.71; in assay [4], 0.63. Besides, the inhibition constant Ki in assay [2] was 355 nM; in assay [3] it was 347 nM.
The corresponding values for `CCCC(=O)NC[C@@H](C)Oc1cccc(OC)c1` are 0.86, 1.06, 81.3 nM and 67.6 nM.
As to `COc1cccc(OC(C)CNC(=O)C2CC2)c1` (stereo unspecified), the Ratio in assay [1] was found to be 1.02; in assay [4] it was 0.91. Moreover, the inhibitory constant (Ki) in assay [2] was 0.933 nM; in assay [3], 12.9 nM.
Turning to `COc1cccc(O[C@H](C)CNC(=O)C2CC2)c1`, the results for the Ratio in assay [1] and in assay [4] were 0.77 and 0.9, respectively. Further, the figures for the Ki in assay [2] and in assay [3] were 7.76 nM and 20.9 nM, respectively.
The corresponding values for `CC(=O)NC(C)CSc1ccccc1` (stereo unspecified) are 0.2, 0, 31600 nM and 6760 nM.
As for `COc1cccc(SCCNC(C)=O)c1`, the Ratio was 0.81 in assay [1] and 0.85 in assay [4]. For the same compound, the results for the inhibition constant (Ki) in assay [2] and in assay [3] were 55 nM and 39.8 nM, respectively.
The corresponding values for `COc1cccc(SC[C@@H](C)NC(C)=O)c1` are 0.32, 0.29, 11500 nM and 12300 nM.
The corresponding values for `COc1cccc(O[C@H](C)CNC(C)=O)c1` are 0.93, 0.79, 49 nM and 110 nM.
In the case of `COc1ccccc1OC(C)CNC(C)=O` (stereo unspecified), the Ratio in assay [1] worked out at 0.45; in assay [4], 0.19. Besides, the Ki in assay [2] is 10500 nM; in assay [3], 5130 nM.
The corresponding values for `COc1cccc(OCCNC(C)=O)c1` are 0.8, 0.81, 40.7 nM and 67.6 nM.
For `CC(=O)N[C@@H](C)COc1ccccc1`, in that order: 0.26, 0.05, 20900 nM and 4570 nM.
The corresponding values for `COc1ccccc1SCCNC(C)=O` are 0.56, 0.27, 3630 nM and 501 nM.
`CCCC(=O)NC[C@H](C)Oc1cccc(OC)c1`: the Ratio amounted to 1.07 in assay [1] and 1.01 in assay [4]. Besides, the Ki in assay [2] is 3.09 nM; in assay [3], 2.75 nM.
The corresponding values for `COc1cccc(SC[C@H](C)NC(C)=O)c1` are 0.5, 0.3, 479 nM and 263 nM.
On to `COc1cccc(S[C@H](C)CNC(=O)C2CC2)c1`, for which the Ratio in assay [1] was found to be 0.59; in assay [4], 0.49. In addition, the Ki in assay [2] was 120 nM; in assay [3], 49 nM.
The corresponding values for `CC(=O)NCC(C)Oc1ccccc1` (stereo unspecified) are 0.69, 0.48, 1380 nM and 1150 nM.
Turning to `COc1cccc(S[C@@H](C)CNC(=O)C2CC2)c1`, the Ratio in assay [1] and in assay [4] was 0.8 throughout. Further, the Ki in assay [2] was 5.37 nM; in assay [3], 6.76 nM.
Take `CC(=O)N[C@H](C)CSc1ccccc1`: the Ratio in assay [1] is -0.04; in assay [4], -0.05. For the same compound, the results for the inhibitory constant (Ki) in assay [2] and in assay [3] were 74100 nM and 64600 nM, respectively.
For `CC(=O)NCCOc1ccccc1`, in that order: 0.5, 0.31, 11500 nM and 5500 nM.
For `CCCC(=O)NCC(C)Oc1cccc(OC)c1` (stereo unspecified), in that order: 1.12, 1.04, 4.17 nM and 3.72 nM.
The corresponding values for `COc1cccc(O[C@@H](C)CNC(C)=O)c1` are 1.09, 1.01, 1.7 nM and 4.68 nM.
As for `COc1cccc(SC(C)CNC(C)=O)c1` (stereo unspecified), the figures for the Ki in assay [2] and in assay [3] were 110 nM and 263 nM, respectively.
For `COc1cccc(S[C@@H](C)CNC(C)=O)c1`, in that order: 5.75 nM and 7.08 nM.
For `COc1cccc(SCC(C)NC(C)=O)c1` (stereo unspecified), in that order: 12000 nM and 1320 nM.
As to `CC(=O)NCCSc1ccccc1`, the Ratio in assay [1] came out at 0.5; in assay [4], 0.22. Besides, the Ki in assay [2] was 3800 nM; in assay [3] it was 339 nM.
For `CC(=O)N[C@H](C)COc1ccccc1`, in that order: 0.11, 0.17, 63100 nM and 53700 nM.
For `CC(=O)NC(C)COc1ccccc1` (stereo unspecified), in that order: 0.15, 0.04, 12000 nM and 3800 nM.
The corresponding values for `COc1ccc(OC(C)CNC(C)=O)cc1` (stereo unspecified) are 0.13, 0.15, 42700 nM and 12600 nM.
As to `COc1cccc(OC[C@H](C)NC(C)=O)c1`, the Ratio in assay [1] was 0.8; in assay [4] it was 0.75. Besides, the Ki in assay [2] is 347 nM; in assay [3], 302 nM.
With `COc1ccc(SCCNC(C)=O)cc1`, the Ratio in assay [1] stood at 0.56; in assay [4], 0.48. Further, the inhibition constant Ki in assay [2] was 2820 nM; in assay [3], 2400 nM.
As to `COc1ccccc1OCCNC(C)=O`, the results for the Ratio in assay [1] and in assay [4] were 0.22 and 0.23, respectively. In addition, the Ki is 37200 nM in assay [2] and 6610 nM in assay [3].
The corresponding values for `CCCC(=O)NCC(C)Sc1cccc(OC)c1` (stereo unspecified) are 0.99, 1.02, 9.12 nM and 5.01 nM.
For `COc1cccc(SC(C)CNC(=O)C2CC2)c1` (stereo unspecified), in that order: 0.63, 0.77, 8.51 nM and 9.77 nM.
The corresponding values for `CCCC(=O)NC[C@H](C)Sc1cccc(OC)c1` are 0.96, 0.99, 3.89 nM and 6.03 nM.
Consider `COc1cccc(OC[C@@H](C)NC(C)=O)c1`, for which the figures for the Ratio in assay [1] and in assay [4] were 0.43 and 0.35, respectively. In addition, the inhibition constant Ki in assay [2] was 36300 nM; in assay [3], 4900 nM.
`COc1cccc(O[C@@H](C)CNC(=O)C2CC2)c1`: the Ratio in assay [1] was 1.26; in assay [4], 1.01. Further, the inhibitory constant (Ki) is 0.724 nM in assay [2] and 4.37 nM in assay [3].
The corresponding values for `CC(=O)N[C@@H](C)CSc1ccccc1` are 0.25, -0.07, 3720 nM and 4370 nM.
In the case of `COc1cccc(S[C@H](C)CNC(C)=O)c1`, the inhibition constant (Ki) in assay [2] is 2750 nM; in assay [3], 661 nM.
`COc1cccc(OC(C)CNC(C)=O)c1` (stereo unspecified): the Ratio in assay [1] and in assay [4] was 1.01 throughout. For the same compound, the Ki in assay [2] was 3.63 nM; in assay [3], 9.55 nM.
For `COc1ccc(OCCNC(C)=O)cc1`, the Ratio in assay [1] amounted to 0.44; in assay [4], 0.26. The Ki in assay [2] is 61700 nM; in assay [3], 45700 nM.
The corresponding values for `CCCC(=O)NC[C@@H](C)Sc1cccc(OC)c1` are 0.64, 0.59, 70.8 nM and 26.3 nM.

A word on the Ki: it is the dissociation constant of the complex between target and ligand, obtained from inhibition or displacement. Read a high Ki as lower affinity.

For the origin of these results see ChEMBL document CHEMBL1221295 (Bioorg Med Chem, 2010).
